# In article PMC5342555, “ATAD2 is an epigenetic reader of newly synthesized histone marks during DNA replication” (Oncotarget, 2016):
# “Also recorded” adds a separate entry of the source.
# Assays:
# GST-ATAD2-BD WT = test: TR-FRET binding of biotinylated peptides to WT bromodomain; set-up: species or system human; settings: for interaction with WT BD (TR-FRET, Figure 5C): 10 nM GST-ATAD2-BD WT, peptides at 100 nM and 1 μM
# Procedure: (§1) TR-FRET measurements of GST-ATAD2 BD^981-1108 binding to the biotinylated synthetic peptides (Anaspec and Biosyntan) described in Supplementary Table S1 (SI Materials and Methods) were basically carried out as described recently for BRD4. For binding and competition experiments the concentration of GST-ATAD2 was 10 nM. Biotinylated peptides were tested in binding experiments at 100 nM and 1 μM, whereas the biotinylated H4K12ac tracer ([…]-K(Ac)-[…]-Biotin) was used at 50 nM in competition assays. […] All assays were performed in 50 mM HEPES pH 7.5, 100 mM NaCl, 50 mM KF, 0.25 mM CHAPS, 0.05 % BSA and 1 mM DTT and protein-peptide equilibrium complexes were detected with 10 nM of Anti-GST-XL665 MAb conjugate (Cisbio) and 2.5 nM of SA-Eu3+ Chelate (Perkin Elmer) as TR-FRET acceptor and donor molecules respectively. Raw fluorescence signals were acquired with a Pherastar FS microtiter plate reader (BMG) with 337 nm (excitation), 622 nm (donor emission) and 665 nm (acceptor emission). HTRF® ratio values were calculated as defined in the instrument software and normalized with low and high controls whenever appropriate. Competition experiments were analyzed with a four parameter logistic equation as defined in the GraphPad analysis software (http://www.graphpad.com/guides/prism/6/curve-fitting).
# GST-ATAD2-BD Mut = test: TR-FRET binding of biotinylated peptides to mutant bromodomain; set-up: species or system human; settings: 10 nM GST-ATAD2-BD Mut
# Procedure: as §1
# MCF7 cells = test: Cell growth, viable cells by AlamarBlue; type: cell-based; settings: MCF7, 4 days after transfection, mean ± SD, n = 3
# HEK293 cells = test: Isolation of proteins on nascent DNA (iPOND) after cycloheximide; type: cell-based
# Procedure: iPOND was performed as previously described. Briefly, exponentially growing 1 x 10^8 of HEK 293 cells were incubated with 10 μM EdU (5-ethynyl-2'-deoxyuridine) and fixed in 1 % formaldehyde for 20 min at RT after 20 min (nascent chromatin) or chased for 2 h in fresh medium before fixation (mature chromatin). Crosslinking was stopped by addition of 0.125 M glycine and cells were permeabilized in 0.25 % Triton-X-100 for 30 min at RT followed by Click reaction to couple biotin to EdU. Cells were incubated in Click reaction buffer (0.01 mM biotin azide, 10 mM sodium ascorbate, 2 mM CuSO4 in PBS) for 1-2 h at RT with constant mixing. Cells were lysed in lysis buffer (1 % SDS in 50 mM Tris pH 8.0) and chromatin was solubilized by sonication in BIORUPTOR (Diagenode) for 4 min with medium frequency and 0.5 intervals at 4 °C. Biotinylated chromatin fragments were purified on streptavidine-dynabeads (ThermoFisher) by overnight end-over-end rotation at 4 °C. After stringent washing including once with 1 M NaCl the bound chromatin was released and crosslinking was reversed by boiling the beads in 2X LDS buffer for 40 min at 100 °C. Samples were dissolved in NuPAGE Bis-Tris gel and Western blot was performed.
# endogenous ATAD2 = test: Peptide pull down from MCF7 nuclear extract; type: binding; settings: immobilized histone peptides, nuclear extract from MCF7 cells
# Procedure: H4 peptides (1-25) conjugated with Biotin was immobilized on Streptavidin-coupled Dynabeads for 2 hours at 4 °C and incubated with nuclear extract from MCF7 cells. Nuclear extract was prepared by first isolating nucleus in hypotonic buffer (10 mM Tris-HCl pH 8.5, 10 mM NaCl, 0.5 mM TCEP and 0.1 % NP-40) and disrupting nuclear envelop in high salt buffer (20 mM Tris-HCl pH 8.5, 420 mM NaCl, 0.5 mM TCEP, 0.1 % Triton X-100, 25 % Glycerol) for 2 hours at 4 °C. Soluble nuclear extract was harvested by centrifugation at 20000 g for 20 min and diluted to 1:3 in buffer without NaCl in order to achieve physiological salt concentration, 140 mM. The nuclear extract was incubated with the immobilized peptides on the Streptavidin-Dynabeads overnight at 4 °C. Next day, the beads were washed three times with washing buffer (20 mM Tris-HCl pH 8.5, 140 mM NaCl, 0.5 mM TCEP, 0.1 % Triton X-100, 25 % Glycerol) and twice with high salt buffer. Bound proteins were recovered by boiling the beads in 1X sample buffer for 5 min. at 95 °C and analyzed by SDS-PAGE and Western Blotting. For direct binding experiments 1 μM of immobilized histone peptides on Streptavidin-Dynabeads were incubated with indicated amounts of ligands for 2 hours at 4 °C. After stringent washing as described above, bound proteins were analyzed in Western Blotting.
Compound,"interaction with WT BD (TR-FRET, Figure 5C) (GST-ATAD2-BD WT)","interaction with mutant BD (TR-FRET, Figure 5C) (GST-ATAD2-BD Mut)",further results
"H4K5/8/12/16ac (1-25): biotinylated histone H4 peptide acetylated at K5,8,12,16, AnaSpec Cat. No. 65248-1",interact,not with mutant BD,
5’-AGAUCACCCUCCUUAAAUAUU-3’ [PLK1],,,"viable cells, fluorescence intensity normalized to control siRNA treated cells (MCF7 cells): 38.5%"
C[C@@H]1C[C@@H]([C@H](O)CC2CC(=O)NC(=O)C2)C(=O)[C@@H](C)C1 [cycloheximide],,,"recruitment of ATAD2 to nascent chromatin (HEK293 cells; HEK293, 250 μg/ml CHX […] before 10 μM EdU 20 min 37 °C, iPOND): abrogated; newly synthesized histone H4 acetylated at K12 on nascent chromatin (HEK293 cells; HEK293, CHX […], iPOND): lost; total level of ATAD2 (HEK293 cells; HEK293, CHX, Western blotting before crosslinking): unaffected"
"H4 (1-25): biotinylated unmodified histone H4 peptide, AnaSpec Cat. No. 65242-1",,,"interaction with endogenous ATAD2 (pull down, Western blotting) (endogenous ATAD2): not"

# Now from value to compound, other results behind:
"interaction with WT BD (TR-FRET, Figure 5C) (GST-ATAD2-BD WT)","interaction with mutant BD (TR-FRET, Figure 5C) (GST-ATAD2-BD Mut)",Compound,further results
strong binding; also recorded: interact,not with mutant BD,"H4K12ac (1-25): biotinylated histone H4 peptide acetylated at K12, AnaSpec Cat. No. 65208-1","interaction with BD of ATAD2 (TR-FRET, Figure 5B) (GST-ATAD2-BD WT; 1 μM biotin-labelled peptide, 10 nM GST-ATAD2 BD, GST as control): strong interaction"
interact,not with mutant BD,"H4K5,12diac (1-25): biotinylated histone H4 peptide di-acetylated at K5 and K12","interaction with endogenous ATAD2 (pull down, Western blotting) (endogenous ATAD2): interacts"
strong binding; also recorded: interact,not with mutant BD,"H4K5ac (1-25): biotinylated histone H4 peptide acetylated at K5, AnaSpec Cat. No. 65229-1",
